Assay results taken from patent US20140005145A1, “COMBINATION BREAST CANCER THERAPY WITH HSP90 INHIBITORY COMPOUNDS” (SYNTA PHARMACEUTICALS CORP., priority 2010, published 2014).

Legend:
[1] = tested on: MCF-7 human breast cancer tumor cells; experiment: MCF-7 human breast tumor xenograft in nude mice, Compound 1 with or without tamoxifen; assay type: in vivo
Protocol: Tumor-bearing animals (5 mice/group) were i.v. injected 1 time per week for a total of 3 doses with 10 mL/kg of 10/18 DRD vehicle with or without 180 mg/kg Compound 1. Animals were also implanted with slow release tamoxifen pellets (Tam). In the combination treatment group, animals were dosed with Compound 1 four days after tamoxifen pellets were implanted. Each group that was not dosed with Compound 1 was instead dosed with 10/18 DRD vehicle as a mock treatment. Average tumor volumes for each group were determined every 3-5 days.
The human breast cancer cell line, MCF-7, was obtained from the American Type Culture Collection (Manassas, Va., USA) and grown according to the ATCC guidelines. MCF-7 xenografts were established in twenty nude mice (Charles River Laboratories, Wilmington, Mass., USA) supplemented with slow release estrogen pellets as previously described, using 5×10^6 cells (1), and randomized into treatment groups. Ten days after cells were inoculated half of the animals were supplemented with slow release tamoxifen pellets.
To formulate Compound 1 in 10/18 DRD, stock solutions of the test article were prepared by dissolving the appropriate amounts of the compound in dimethyl sulfoxide (DMSO) by sonication in an ultrasonic water bath. Stock solutions were prepared weekly, stored at −20° C. and diluted fresh each day for dosing. A solution of 20% Cremophor RH40 (polyoxyl 40 hydrogenated castor oil; BASF Corp., Aktiengesellschaft, Ludwigshafen, Germany) in 5% dextrose in water (D5W; Abbott Laboratories, North Chicago, Ill., USA) was also prepared by first heating 100% Cremophor RH40 at 50-60° C. until liquefied and clear, diluting 1:5 with 100% D5W, reheating again until clear and then mixing well. This solution was stored at room temperature for up to 3 months prior to use. To prepare 10/18 DRD formulations for daily dosing, DMSO stock solutions were diluted 1:10 with 20% Cremophor RH40. The final 10/18 DRD formulation for dosing contained 10% DMSO, 18% Cremophor RH40, 3.6% dextrose, 68.4% water and the appropriate amount of test article. Animals were intravenously (i.v.) injected with this formulation at 10 mL per kg body weight on one day each week for a total of 3 doses, four days after tamoxifen pellets were implanted.
The ability of Compound 1 to enhance the in vivo anti-tumor activity of tamoxifen was investigated.

[2] = tested on: MCF-7 breast cancer cells; experiment: Emergence of tamoxifen resistant clones in MCF-7 cell culture; assay type: cell-based, human; conditions: tamoxifen combined with compound 1, MCF-7 cell culture

SMILES	adverse finding in dosed animals ([1]; Compound 1 alone cohort, 180 mg/kg i.v., one of the animals, following the first dose, removed from the study)	in vivo growth rate of MCF-7 cells (tumor volume) ([1]; Compound 1 alone, 180 mg/kg i.v. 1 time per week, 3 doses, nude mice)	effect in combination with tamoxifen in the treatment of breast cancer ([1]; in combination with tamoxifen, preclinical model)	tumor response (tumor volume) to the combination ([1]; slow release tamoxifen combined with 180 mg/kg Compound 1 i.v. 1 time per week, 3 doses, nude mice)	emergence of tamoxifen resistant clones [2]	in vivo growth rate of MCF-7 cells (tumor volume) ([1]; slow release tamoxifen pellets alone (10/18 DRD vehicle as mock treatment), nude mice)
CC(C)c1cc(-c2nnc(O)n2-c2ccc3c(ccn3C)c2)c(O)cc1O [Compound 1, 3-(2,4-dihydroxy-5-isopropyl-phenyl)-4-(1-methyl-indol-5-yl)-5-hydroxy-[1,2,4]triazole]	signs of necrosis in the tail	moderate reductions in the growth rate	surprising synergistic effect	significant tumor regression	dramatically limited the emergence of tamoxifen resistant clones	
CC/C(=C(\c1ccccc1)c1ccc(OCCN(C)C)cc1)c1ccccc1 [tamoxifen, reference compound]						moderate reductions in the growth rate
